Laboratory results: patent US20200131156A1, “ARYLSULFONYLPYROLECARBOXAMIDE DERIVATIVES AS Kv3 POTASSIUM CHANNEL ACTIVATORS” (H. Lundbeck A/S, priority 2018, published 2020)

Molecular target: T1, hKv3.1b (Homo sapiens, UniProt P48547)
T1 construct: expressed in transfected cells
T1 sequence (P48547 1-585 isoform P48547-2): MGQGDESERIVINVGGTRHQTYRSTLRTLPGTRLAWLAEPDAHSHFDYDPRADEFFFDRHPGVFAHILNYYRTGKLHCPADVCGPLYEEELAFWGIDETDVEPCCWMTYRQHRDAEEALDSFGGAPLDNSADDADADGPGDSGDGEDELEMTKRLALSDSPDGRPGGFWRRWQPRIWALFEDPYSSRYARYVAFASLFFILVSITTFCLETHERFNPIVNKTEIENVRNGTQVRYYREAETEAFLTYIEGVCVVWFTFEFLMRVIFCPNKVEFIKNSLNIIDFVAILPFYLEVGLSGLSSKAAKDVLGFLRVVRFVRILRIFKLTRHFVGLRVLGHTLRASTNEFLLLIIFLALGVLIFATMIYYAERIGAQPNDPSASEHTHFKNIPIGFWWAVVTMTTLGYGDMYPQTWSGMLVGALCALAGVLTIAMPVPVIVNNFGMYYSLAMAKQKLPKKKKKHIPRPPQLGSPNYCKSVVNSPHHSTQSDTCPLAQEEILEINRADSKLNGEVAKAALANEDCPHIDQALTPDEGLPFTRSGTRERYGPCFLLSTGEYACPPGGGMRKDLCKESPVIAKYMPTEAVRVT
Test: Automated patch clamp (QPatch-16x) on HEK-293 cells stably expressing hKv3.1b
Format: cell-based
Details: for ECdelta5 mV: concentration needed to shift the activation threshold 5 mV; for Threshold Shift: maximum absolute hyperpolarizing shift of activation threshold at tested concentrations 0.37-30 μM
Procedure: HEK-293 cells stably expressing hKv3.1b were used for the experiments. Cells were cultured in DMEM medium supplemented with 10% Fetal Bovine Serum, 100 ug/mL Geneticidin and 100 u/mL Penicillin/Streptomycin (all from Gibco). Cells were grown to 80-90% confluency at 37° C. and 5% CO2. On the day of the experiment the cells were detached from the tissue culture flasks by Detachin, resuspended in serum free medium containing 25 mM HEPES and transferred to the cell hotel of the QPatch. The cells were used for experiments 0-5 hours after detachment.
Patch-clamp recordings were performed using the automated recording system QPatch-16x (Sophion Bioscience, Denmark). Cells were centrifuged, SFM removed and the cells were resuspended in extracellular buffer containing (in mM): 145 NaCl, 4 KCl, 1 MgCl2, 2 CaCl2, 10 HEPES and 10 glucose (added fresh on the day of experiment); pH 7.4 adjusted with NaOH, 305 mOsm adjusted with sucrose.
Single cell whole-cell recordings were carried out using an intracellular solution containing (in mM): 120 KCl, 32.25/10 KOH/EGTA, 5.374 CaCl2, 1.75 MgCl2, 10 HEPES, 4 Na2ATP (added fresh on the day), pH 7.2 adjusted with KOH, […] adjusted with sucrose. Cell membrane potentials were held at −80 mV and currents were evoked by voltage steps (200 ms duration) from −70 mV to +10 mV (in 10 mV increments). Vehicle (0.33% DMSO) or increasing concentration of compound (I) were applied and the voltage protocol was run 3 times (resulting in 3 min cpd incubation time). Five increasing concentrations of compound (I) were applied to each cell.
Leak subtraction protocol was applied at −33% of the sweep amplitude, and serial resistance values were constantly monitored.
Any cell where serial resistance exceeded 25 MOhm, membrane resistance less than 200 MOhm or current size at −10 mV less than 200 pA was eliminated from the subsequent analysis.
Data analysis was performed using Sophion's QPatch assay software in combination with Microsoft Excel™ (Redmond, Wash., USA). Current voltage relationships were plotted from the peak current at the individual voltage steps normalized to the vehicle addition at 10 mV. The voltage threshold for channel activation was defined as 5% activation of the peak current at 10 mV in presence of vehicle. The activity of the compounds was described as the ability to shift this current voltage relationship to more hyperpolarized potentials and is given as the maximum absolute shift possible at the tested concentrations (0.37, 1.11, 3.33, 10, 30 μM). Concentration response curves were plotted from the threshold shift at the individual concentrations and were fitted excel fit model 205 sigmoidal dose-response model (fit=A+((B−A)/1+((C/x)^D)))), where A is the minimum value, B the maximum value, C the EC50 value and D the slope of the curve. The concentration needed to shift the threshold 5 mV was readout from this curve (ECdelta5 mV).

| SMILES | ECdelta5 mV [nM] | Threshold Shift [mV] |
| --- | --- | --- |
| Cc1ccc(S(=O)(=O)n2ccc(C(=O)NCc3cc(C)ccn3)c2)cc1 [Compound 16, N-[(4-methyl-2-pyridyl)methyl]-1-(p-tolylsulfonyl)pyrrole-3-carboxamide] | 3000 | 16 |
| Cc1ccc(S(=O)(=O)n2ccc(C(=O)NCc3ncccc3C)c2)cc1 [Compound 17, N-[(3-methyl-2-pyridyl)methyl]-1-(p-tolylsulfonyl)pyrrole-3-carboxamide] | 2300 | 16 |
| COc1ccc(CNC(=O)c2ccn(S(=O)(=O)c3ccc(C)cc3)c2)nc1 [Compound 18, N-[(5-methoxy-2-pyridyl)methyl]-1-(p-tolylsulfonyl) pyrrole-3-carboxamide] | 3500 | 10 |
| COc1ccnc(CNC(=O)c2ccn(S(=O)(=O)c3ccc(C)cc3)c2)c1 [Compound 19, N-[(4-methoxy-2-pyridyl)methyl]-1-(p-tolylsulfonyl) pyrrole-3-carboxamide] | 2100 | 11 |
| Cc1ccc(S(=O)(=O)n2ccc(C(=O)NCc3cnc4nccn4c3)c2)cc1 [Compound 24, N-(imidazo[1,2-a]pyrimidin-6-ylmethyl)-1-(p-tolylsulfonyl)pyrrole-3-carboxamide] | 3200 | 24 |
| Cc1ccc(S(=O)(=O)n2ccc(C(=O)NCc3cnc(C)cn3)c2)cc1 [Compound 25, N-[(5-methylpyrazin-2-yl)methyl]-1-(p-tolylsulfonyl) pyrrole-3-carboxamide] | 1100 | 37 |
| Cc1ccc(S(=O)(=O)n2ccc(C(=O)NCc3ccc(C)nc3)c2)cc1 [Compound 26, N-[(6-methyl-3-pyridyl)methyl]-1-(p-tolylsulfonyl)pyrrole-3-carboxamide] | 930 | 22 |
| Cc1cnc(CNC(=O)c2ccn(S(=O)(=O)c3ccccc3C)c2)cn1 [Compound 28, N-[(5-methylpyrazin-2-yl)methyl]-1-(o-tolylsulfonyl) pyrrole-3-carboxamide] | 1500 | 27 |
| Cc1ccc(S(=O)(=O)n2ccc(C(=O)NCc3cnccn3)c2)cc1 [Compound 29, 1-(p-tolylsulfonyl)-N-(pyrazin-2-ylmethyl) pyrrole-3-carboxamide] | 1300 | 31 |
| Cc1cccc(S(=O)(=O)n2ccc(C(=O)NCc3cnc(C)cn3)c2)c1 [Compound 30, N-[(5-methylpyrazin-2-yl)methyl]-1-(m-tolylsulfonyl)pyrrole-3-carboxamide] | 2500 | 17 |
| Cc1ccc(S(=O)(=O)n2ccc(C(=O)NCc3nnc(C)o3)c2)cc1 [Compound 31, N-[(5-methyl-1,3,4-oxadiazol-2-yl)methyl]-1-(p-tolylsulfonyl)pyrrole-3-carboxamide] | 9600 | 13 |
| Cc1ccc(S(=O)(=O)n2ccc(C(=O)NCc3cc(C)on3)c2)cc1 [Compound 32, N-[(5-methylisoxazol-3-yl)methyl]-1-(p-tolylsulfonyl) pyrrole-3-carboxamide] | 1300 | 16 |
| Cc1ccc(S(=O)(=O)n2ccc(C(=O)NCc3ncc(C)o3)c2)cc1 [Compound 33, N-[(5-methyloxazol-2-yl)methyl]-1-(p-tolylsulfonyl)pyrrole-3-carboxamide] | 2200 | 15 |
| Cc1ccc(S(=O)(=O)n2ccc(C(=O)NCc3nc(C)cs3)c2)cc1 [Compound 34, N-[(4-methylthiazol-2-yl)methyl]-1-(p-tolylsulfonyl)pyrrole-3-carboxamide] | 1100 | 18 |
| Cc1ccc(S(=O)(=O)n2ccc(C(=O)NCc3cc(C)no3)c2)cc1 [Compound 35, N-[(3-methylisoxazol-5-yl)methyl]-1-(p-tolylsulfonyl) pyrrole-3-carboxamide] | 1100 | 21 |
| Cc1ccc(S(=O)(=O)n2ccc(C(=O)NCc3ccn(C)n3)c2)cc1 [Compound 36, N-[(1-methylpyrazol-3-yl)methyl]-1-(p-tolylsulfonyl) pyrrole-3-carboxamide] | 810 | 27 |
| Cc1ccc(S(=O)(=O)n2ccc(C(=O)NCc3cnn(C)c3)c2)cc1 [Compound 37, N-[(1-methylpyrazol-4-yl)methyl]-1-(p-tolylsulfonyl) pyrrole-3-carboxamide] | 1800 | 22 |
| Cc1ccc(S(=O)(=O)n2ccc(C(=O)NCc3cnc(C)o3)c2)cc1 [Compound 38, N-[(2-methyloxazol-5-yl)methyl]-1-(p-tolylsulfonyl)pyrrole-3-carboxamide] | 4600 | 13 |
| Cc1ccc(S(=O)(=O)n2ccc(C(=O)NCc3ncc(C)s3)c2)cc1 [Compound 39, N-[(5-methylthiazol-2-yl)methyl]-1-(p-tolylsulfonyl)pyrrole-3-carboxamide] | 1600 | 17 |
| Cc1ccc(S(=O)(=O)n2ccc(C(=O)NCc3cn(C)cn3)c2)cc1 [Compound 40, N-[(1-methylimidazol-4-yl)methyl]-1-(p-tolylsulfonyl)pyrrole-3-carboxamide] | 2000 | 22 |
| Cc1ccc(S(=O)(=O)n2ccc(C(=O)NCc3cn(C)nn3)c2)cc1 [Compound 41, N-[(1-methyltriazol-4-yl)methyl]-1-(p-tolylsulfonyl)pyrrole-3-carboxamide] | 3100 | 17 |
| Cc1ccc(S(=O)(=O)n2ccc(C(=O)NCc3ncn(C)n3)c2)cc1 [Compound 42, N-[(1-methyl-1,2,4-triazol-3-yl)methyl]-1-(p-tolylsulfonyl)pyrrole-3-carboxamide] | 1700 | 25 |
| Cc1ccc(S(=O)(=O)n2ccc(C(=O)NCc3nc(C)no3)c2)cc1 [Compound 43, N-[(3-methyl-1,2,4-oxadiazol-5-yl)methyl]-1-(p-tolylsulfonyl)pyrrole-3-carboxamide] | 1700 | 23 |
| Cc1ccc(S(=O)(=O)n2ccc(C(=O)NCc3coc(C)n3)c2)cc1 [Compound 47, 1-(4-methylbenzene-1-sulfonyl)-N-[(2-methyl-1,3-oxazol-4-yl)methyl]-1H-pyrrole-3-carboxamide] | 2300 | 12 |
| Cc1cnc(CNC(=O)c2ccn(S(=O)(=O)c3ccccc3)c2)cn1 [Compound 48, 1-(benzenesulfonyl)-N-[(5-methylpyrazin-2-yl)methyl]-1H-pyrrole-3-carboxamide] | 2300 | 18 |
| Cc1ccc(S(=O)(=O)n2ccc(C(=O)NCc3cscn3)c2)cc1 [Compound 49, 1-(4-methylbenzene-1-sulfonyl)-N-[(1,3-thiazol-4-yl)methyl]-1H-pyrrole-3-carboxamide] | 2100 | 13 |
| Cc1ccc(S(=O)(=O)n2ccc(C(=O)NCc3cnco3)c2)cc1 [Compound 50, 1-(4-methylbenzene-1-sulfonyl)-N-[(1,3-oxazol-5-yl)methyl]-1H-pyrrole-3-carboxamide] | 3300 | 13 |
